From patent publication US10392422B2, “Macrocyclic broad spectrum antibiotics” (priority 2014, dated 2019)
≈ marks a conversion by molar mass, not a printed value. Like-named read-outs stand apart in the source and are kept apart here.

Tests used:
Assay in all cases: MIC, broth micro-dilution technique (CLSI)
[1] = tested on: Escherichia coli MC4100 harboring the IMP4213; format: cell-based; settings: 35° C., 22 hours; for MIC: Escherichia coli, 22 h, read-out: MIC (μg/mL) E. coli, Table 1 protocol: serial 2-fold dilutions starting from 64 μg/ml
Protocol: (§1) In vitro antimicrobial activity of each compound was determined by measuring minimal inhibitor concentrations (MICs) using the broth micro-dilution technique as approved by the Clinical and Laboratory Standards Institute (CLSI) (Methods for Dilution Antimicrobial Susceptibility Tests for Bacteria that Grow Aerobically; Approved Standard—Eighth Edition. CLSI document M07-A8. Wayne, Pa.: Clinical and Laboratory Standards; 2009). Antibacterial activity was measured against three strains of bacteria: a Methicillin Resistant Staphylococcus aureus strain USA 300 (NRS384); a MRSA COL (NRS100), another Methicillin Resistant Staphylococcus aureus strain; and a strain of Escherichia coli MC4100 harboring the IMP4213, which results in increased outer-membrane permeability (B Martin and Silhavy T. Imp/OstA is required for cell envelope biogenesis in Escherichia coli. (2002) Molecular Microbiology, 45(5), 1289-1302). Cells were inoculated onto plates of Trypyticase Soy Agar or Luria Agar respectively and grown at 35° C. for 20 hours. Inocula suspensions were prepared by scraping cells into 1 ml of testing media (cation adjusted Mueller Hinton Broth supplemented with 0.002% v/v Tween-80) and diluting to a final OD600 nm of 0.01.
(§2) Test compounds were prepared in DMSO at a concentration of 10 mg/ml. These compound stocks were diluted into testing media at a concentration of 64 μg/ml and serial 2-fold dilutions were made in the same media, in 96-well U bottom microtiter dishes, for a total of 10 compound concentrations (Table 1). In modified protocols (Table 2), compound stocks were diluted into testing media at a concentration of 4 μg/mL and serial 2-fold dilutions were made in the same media, in 96-well U bottom microtiter dishes, for a total of 10 compound concentrations. Inocula suspensions were added to the 2-fold serial dilutions of test compounds to a final density of OD OD600 nm of 0.0005 and incubated at 35° C. for 22 hours. […] The results from the protocol starting from a concentration of 64 µg/mL are listed in Table 1 and the results from the modified protocol are shown in Table 2.

[2] = tested on: Methicillin Resistant Staphylococcus aureus strain USA 300 (NRS384); format: cell-based; settings: for MIC: Staphylococcus aureus, 22 h, read-out: MIC (μg/mL) S. aureus
Protocol: as §1, §2

MRSA COL (NRS100) = format: cell-based, Staphylococcus aureus; settings: for MIC: Staphylococcus aureus, 22 h, read-out: MIC (μg/mL) (COL)
Protocol: as §1, §2

[3] = Table 1 protocol: serial 2-fold dilutions starting from 64 μg/ml, 35° C., 22 hours

Compound	MIC [1]	MIC [2, 3]	MIC (MRSA COL (NRS100); [3])	MIC (μg/mL) E. coli ([1]; Table 1 protocol: serial 2-fold dilutions starting from 64 μg/ml)	MIC (μg/mL) S. aureus [2, 3]	MIC (μg/mL) (COL) (MRSA COL (NRS100); [3])	MIC [2]	MIC (MRSA COL (NRS100))
CCCCCCCCCNCCCC(=O)N[C@@H](CCCCN)C(=O)N(C)[C@@H]1C(=O)N[C@@H](C)C(=O)N[C@H](C(=O)N[C@@H](C)C(C)=O)Cc2ccc(O)c(c2)-c2cc1ccc2O [Compound 111]	> 64 µg/mL	23 µg/mL (≈ 28 µM)	4 µg/mL (≈ 4.87 µM)	–	–	–	–	–
CCCCCCCCCCNCC(=O)N[C@@H](CCCCN)C(=O)N(C)[C@@H]1C(=O)N[C@@H](C)C(=O)N[C@H](C(=O)N[C@@H](C)C(C)=O)Cc2ccc(O)c(c2)-c2cc1ccc2O [Compound 112]	–	–	–	64 µg/mL (≈ 79.2 µM)	2.8 µg/mL (≈ 3.47 µM)	0.5 µg/mL (≈ 0.619 µM)	–	–
CCCCCCCCCCNCCC(=O)N[C@@H](CCCCN)C(=O)N(C)[C@@H]1C(=O)N[C@@H](C)C(=O)N[C@H](C(=O)O)Cc2ccc(O)c(c2)-c2cc1ccc2OCCN [Compound 113]	25 µg/mL (≈ 31.4 µM)	–	–	–	–	–	9.5 µg/mL (≈ 11.9 µM)	2 µg/mL (≈ 2.51 µM)
CCCCCCCCCCNCCC(=O)N[C@@H](CCCCN)C(=O)N(C)[C@@H]1C(=O)N[C@@H](C)C(=O)N[C@H](C(=O)N[C@@H](C)C(C)=O)Cc2ccc(O)c(c2)-c2cc1ccc2O [Compound 114]	32 µg/mL (≈ 38.9 µM)	–	–	–	–	–	> 64 µg/mL	1 µg/mL (≈ 1.22 µM)
CCCCCCCCCCNCCC(=O)N[C@@H](CCCCN)C(=O)N(C)[C@@H]1C(=O)N[C@@H](C)C(=O)N[C@H](C(=O)N[C@@H](C)C(=O)COC(C)=O)Cc2ccc(O)c(c2)-c2cc1ccc2OCCN [Compound 116]	13 µg/mL (≈ 14.1 µM)	–	–	–	–	–	0.35 µg/mL (≈ 0.379 µM)	0.063 µg/mL (≈ 0.0682 µM)
CC(=O)OCC(=O)[C@H](C)NC(=O)[C@@H]1Cc2ccc(O)c(c2)-c2cc(ccc2OCCN)[C@H](N(C)C(=O)[C@H](CCCCN)NC(=O)c2ccc(-c3ccc(Cl)cc3)cc2)C(=O)N[C@@H](C)C(=O)N1 [Compound 117]	1.6 µg/mL (≈ 1.73 µM)	–	–	–	–	–	0.71 µg/mL (≈ 0.766 µM)	0.22 µg/mL (≈ 0.237 µM)
C[C@H](NC(=O)[C@@H]1Cc2ccc(O)c(c2)-c2cc(ccc2OCCN)[C@H](N(C)C(=O)[C@H](CCCCN)NC(=O)c2ccc(-c3ccc(Cl)cc3)cc2)C(=O)N[C@@H](C)C(=O)N1)C(=O)CO [Compound 118]	2 µg/mL (≈ 2.26 µM)	–	–	–	–	–	1 µg/mL (≈ 1.13 µM)	0.63 µg/mL (≈ 0.712 µM)
CC(=O)[C@H](C)NC(=O)[C@@H]1Cc2ccc(O)c(c2)-c2cc(ccc2OCCN)[C@H](N(C)C(=O)[C@H](CCCCN)NC(=O)c2ccc(-c3ccc(Cl)cc3)cc2)C(=O)N[C@@H](C)C(=O)N1 [Compound 119]	5.3 µg/mL (≈ 6.1 µM)	–	–	–	–	–	1 µg/mL (≈ 1.15 µM)	0.5 µg/mL (≈ 0.576 µM)
CC(=O)[C@H](C)NC(=O)[C@@H]1Cc2ccc(O)c(c2)-c2cc(ccc2OCC(=O)O)[C@H](N(C)C(=O)[C@H](CCCCN)NC(=O)c2ccc(-c3ccc(Cl)cc3)cc2)C(=O)N[C@@H](C)C(=O)N1 [Compound 120]	64 µg/mL (≈ 72.4 µM)	–	–	–	–	–	51 µg/mL (≈ 57.7 µM)	13 µg/mL (≈ 14.7 µM)
CC(=O)[C@H](C)NC(=O)[C@@H]1Cc2ccc(O)c(c2)-c2cc(ccc2OCCO)[C@H](N(C)C(=O)[C@H](CCCCN)NC(=O)c2ccc(-c3ccc(Cl)cc3)cc2)C(=O)N[C@@H](C)C(=O)N1 [Compound 121]	32 µg/mL (≈ 36.8 µM)	–	–	–	–	–	8 µg/mL (≈ 9.2 µM)	3 µg/mL (≈ 3.45 µM)
C[C@H](NC(=O)[C@@H]1Cc2ccc(O)c(c2)-c2cc(ccc2O)[C@H](N(C)C(=O)[C@H](CCCCN)NC(=O)c2ccc(-c3ccc(Cl)cc3)cc2)C(=O)N[C@@H](C)C(=O)N1)C(=O)CO [Compound 124]	16 µg/mL (≈ 19 µM)	–	–	–	–	–	1 µg/mL (≈ 1.19 µM)	0.5 µg/mL (≈ 0.594 µM)
C[C@H](NC(=O)[C@@H]1Cc2ccc(O)c(c2)-c2cc(ccc2O)[C@H](N(C)C(=O)[C@H](CCCCN)NC(=O)c2ccc(-c3ccc(Cl)cc3)cc2)C(=O)N[C@@H](C)C(=O)N1)C(=O)/C=C/c1cc[nH]n1 [Compound 129]	> 64 µg/mL	16 µg/mL (≈ 17.7 µM)	4 µg/mL (≈ 4.43 µM)	–	–	–	–	–
C[C@H](NC(=O)[C@@H]1Cc2ccc(O)c(c2)-c2cc(ccc2O)[C@H](N(C)C(=O)[C@H](CCCCN)NC(=O)c2ccc(-c3ccc(Cl)cc3)cc2)C(=O)N[C@@H](C)C(=O)N1)C(=O)CCc1cc[nH]n1 [Compound 130]	> 64 µg/mL	16 µg/mL (≈ 17.7 µM)	8 µg/mL (≈ 8.84 µM)	–	–	–	–	–
C[C@H](NC(=O)[C@@H]1Cc2ccc(O)c(c2)-c2cc(ccc2O)[C@H](N(C)C(=O)[C@H](CCCCN)NC(=O)c2ccc(-c3ccc(Cl)cc3)cc2)C(=O)N[C@@H](C)C(=O)N1)C(=O)CCc1c[nH]cn1 [Compound 132]	> 64 µg/mL	32 µg/mL (≈ 35.3 µM)	8 µg/mL (≈ 8.84 µM)	–	–	–	–	–
C[C@H](NC(=O)[C@@H]1Cc2ccc(O)c(c2)-c2cc(ccc2O)[C@H](N(C)C(=O)[C@H](CCCCN)NC(=O)c2ccc(-c3ccc(Cl)cc3)cc2)C(=O)N[C@@H](C)C(=O)N1)B1O[C@@H]2C[C@@H]3C[C@@H](C3(C)C)[C@]2(C)O1 [Compound 133]	2 µg/mL (≈ 2.08 µM)	–	–	–	–	–	2.5 µg/mL (≈ 2.6 µM)	1.5 µg/mL (≈ 1.56 µM)
C[C@@H]1NC(=O)[C@@H](N(C)C(=O)[C@H](CCCCN)NC(=O)c2ccc(-c3ccc(Cl)cc3)cc2)c2ccc(O)c(c2)-c2cc(ccc2O)C[C@@H](C(=O)N[C@@H](C)C(=O)c2nnn[nH]2)NC1=O [Compound 134]	45 µg/mL (≈ 51.2 µM)	2.8 µg/mL (≈ 3.18 µM)	0.75 µg/mL (≈ 0.853 µM)	–	–	–	–	–
C[C@H](NC(=O)[C@@H]1Cc2ccc(O)c(c2)-c2cc(ccc2O)[C@H](N(C)C(=O)[C@H](CCCCN)NC(=O)c2ccc(-c3ccc(Cl)cc3)cc2)C(=O)N[C@@H](C)C(=O)N1)C(=O)N[C@H]1CCNC1=O [Compound 135]	64 µg/mL (≈ 70.4 µM)	> 64 µg/mL	32 µg/mL (≈ 35.2 µM)	–	–	–	–	–
C[C@@H]1NC(=O)[C@@H](N(C)C(=O)[C@H](CCCCN)NC(=O)c2ccc(-c3ccc(Cl)cc3)cc2)c2ccc(O)c(c2)-c2cc(ccc2O)C[C@@H](C(=O)N[C@@H](C)C(=O)N(C)[C@H]2CCNC2=O)NC1=O [Compound 136]	16 µg/mL (≈ 17.3 µM)	8 µg/mL (≈ 8.66 µM)	2 µg/mL (≈ 2.17 µM)	–	–	–	–	–
C[C@H](NC(=O)[C@@H]1Cc2ccc(O)c(c2)-c2cc(ccc2O)[C@H](N(C)C(=O)[C@H](CCCCN)NC(=O)c2ccc(-c3ccc(Cl)cc3)cc2)C(=O)N[C@@H](C)C(=O)N1)C(=O)N[C@@H]1CCNC1=O [Compound 137]	32 µg/mL (≈ 35.2 µM)	32 µg/mL (≈ 35.2 µM)	8 µg/mL (≈ 8.8 µM)	–	–	–	–	–
C[C@@H]1NC(=O)[C@@H](N(C)C(=O)[C@H](CCCCN)NC(=O)c2ccc(-c3ccc(Cl)cc3)cc2)c2ccc(O)c(c2)-c2cc(ccc2O)C[C@@H](C(=O)N[C@@H](C)C(=O)N(C)[C@@H]2CCNC2=O)NC1=O [Compound 138]	64 µg/mL (≈ 69.3 µM)	–	–	–	–	–	32 µg/mL (≈ 34.7 µM)	17 µg/mL (≈ 18.4 µM)
COC(=O)C(=O)[C@H](C)NC(=O)[C@@H]1Cc2ccc(O)c(c2)-c2cc(ccc2O)[C@H](N(C)C(=O)[C@H](CCCCN)NC(=O)c2ccc(-c3ccc(Cl)cc3)cc2)C(=O)N[C@@H](C)C(=O)N1 [Compound 139]	8 µg/mL (≈ 9.2 µM)	–	–	–	–	–	11 µg/mL (≈ 12.7 µM)	4 µg/mL (≈ 4.6 µM)
C[C@@H]1NC(=O)[C@@H](N(C)C(=O)[C@H](CCCCN)NC(=O)c2ccc(-c3ccc(Cl)cc3)cc2)c2ccc(O)c(c2)-c2cc(ccc2O)C[C@@H](C(=O)N[C@@H](C)C(=O)C(=O)O)NC1=O [Compound 140]	8 µg/mL (≈ 9.35 µM)	–	–	–	–	–	23 µg/mL (≈ 26.9 µM)	8 µg/mL (≈ 9.35 µM)
C[C@@H]1NC(=O)[C@@H](N(C)C(=O)[C@H](CCCCN)NC(=O)c2ccc(-c3ccc(Cl)cc3)cc2)c2ccc(O)c(c2)-c2cc(ccc2O)C[C@@H](C(=O)N[C@@H](C)C(=O)C(=O)NCc2cc[nH]n2)NC1=O [Compound 141]	32 µg/mL (≈ 34.2 µM)	8 µg/mL (≈ 8.56 µM)	4 µg/mL (≈ 4.28 µM)	–	–	–	–	–
C[C@@H]1NC(=O)[C@@H](N(C)C(=O)[C@H](CCCCN)NC(=O)c2ccc(-c3ccc(Cl)cc3)cc2)c2ccc(O)c(c2)-c2cc(ccc2O)C[C@@H](C(=O)N[C@@H](C)C(=O)C(=O)N[C@@H]2CCNC2=O)NC1=O [Compound 142]	16 µg/mL (≈ 17.1 µM)	64 µg/mL (≈ 68.3 µM)	16 µg/mL (≈ 17.1 µM)	–	–	–	–	–
